From US10206908B2, “3-(1H-pyrrolo[3,2-C]pyridin-2-YL)-1H-pyrazolo[3,4-C]pyridines and therapeutic uses thereof” (Samumed, LLC, priority 2015, dated 2019)

How the values were obtained:
Assay type in all cases: cell-based
[1] = tested on: primary human fibroblasts derived from IPF patients (LL29 cells) treated with TGF-β1; experiment: Inhibition of the fibrotic process: αSMA staining in TGF-β1 treated LL29 fibroblasts; details: Fibroblast; for EC50: 96 h, % αSMA positive LL29 cells, TGF-β1 20 ng/mL, 4 days; for inhibition at 10 µM: read-out: percent inhibition at 10 μM
Method: Representative compounds were screened using primary human fibroblasts (derived from IPF patients) treated with TGF-β1 to determine their ability to inhibit the fibrotic process.
LL29 cells are plated at 1,500 cells/well in 80 μL/well F12 medium supplemented with 1% Fetal Bovine Serum. […] Wells treated with TGF-β1 and containing DMSO were used as controls. […] Following incubation for 4 days, SYTOX green nucleic acid stain (Life Technologies [Thermo Fisher Scientific]) was added to the wells at a final concentration of 1 μM and incubated at room temperature for 30 min.

SW480 colon cancer cells = experiment: Cell viability assay (CellTiter-Blue) in SW480 colon cancer cells; details: Homo sapiens; for EC50: 96 h, SW480 cell viability, four days; for inhibition at 10 µM: SW480, read-out: percent inhibition at 10 μM
Method: Representative compounds were screened using the following assay procedure to assess the effect on cell viability as described below.
Approximately 2×10^3 SW480 colon cancer cells were seeded into each well and allowed to incubate in the presence or absence of compound for four days at 37° C./5% CO2. Eight replicates of DMSO-treated cells served as controls and cells treated with compound were performed in duplicate.
After incubation, 20 μL of CellTiter-Blue (Promega) was added to each well allowed to incubate for approximately 3 hours. This reagent was a buffered solution which contains resazurin, metabolically active cells were able to reduce rezarurin (blue) into resorufin (pink) which was highly fluorescent. This measured fluorescence was used as a readout for cell viability.

[2] = tested on: Wnt activity (Sp5-Luc reporter, SW480 colon carcinoma cells); experiment: Screening assay for Wnt activity: Sp5-Luc reporter gene assay in SW480 colon carcinoma cells; details: Homo sapiens; for EC50: Sp5-Luc reporter, SW480 cells, overnight incubation; for inhibition at 10 µM: SW480, read-out: percent inhibition at 10 μM
Excerpt: The screening assay for Wnt activity is described as follows. Reporter cell lines can be generated by stably transducing cancer cell lines (e.g., colon cancer) or primary cells (e.g., IEC-6 intestinal cells) with a lentiviral construct that includes a Wnt-responsive promoter driving expression of the firefly luciferase gene.
SW480 colon carcinoma cells were transduced with a lentiviral vector expressing luciferase with a human Sp5 promoter consisting of a sequence of eight TCF/LEF binding sites. SW480 cells stably expressing the Sp5-Luc reporter gene and a hygromycin resistance gene were selected by treatment with 150 μg/mL of hygromycin for 7 days. These stably transduced SW480 cells were expanded in cell culture and used for all further screening activities. […] For Sp5-Luc reporter gene assays, the cells were plated at 4,000 cells/well in 384-well plates with medium containing 1% fetal bovine serum and incubated overnight at 37° C. and 5% CO2. Following incubation, 20 μl of BrightGlo luminescence reagent (Promega) was added to each well of the 384-well assay plates. The plates were placed on an orbital shaker for 2 min and then luminescence was quantified using the Envision (Perkin Elmer) plate reader. Readings were normalized to DMSO only treated cells, and normalized activities were utilized for EC50 calculations using the dose-response log (inhibitor) vs. response-variable slope (four parameters) nonlinear regression feature available in GraphPad Prism 5.0 (or Dotmatics).

IL-6 (THP-1 cells) = experiment: IL-6 inhibition in LPS-stimulated THP-1 monocytes (HTRF); details: Homo sapiens; for EC50: IL-6, THP-1 cells, LPS 500 ng/mL, 22 hours; for inhibition at 10 µM: THP-1, read-out: percent inhibition at 10 μM
Method: Compound Screening: THP-1 cells were cultured in basal media with 1% FBS for 24 hours before the start of the assay. […] THP-1 cells were plated at 5000 cells/well in the 384-well plates and incubated at 37° C. for 2 h. 500 ng/mL of LPS was added after 2 hours and cells were incubated for another 22 hours at 37° C. Plates were spun in a centrifuge for 1 minute at […] and a mixture of anti-IL6 XL665, and anti-IL6 Cryptate diluted in reconstitution buffer (Cisbio Inc.) was added to each well. Following incubation for 3 hrs at room temperature, Homogeneous Time-Resolved Fluorescence (HTRF) was measured using the Envision (Perkin Elmer) at 665 nm and […]. The ratio of fluorescence at 665 nm to 620 nm was used as a readout for IL6 quantification. All samples were processed in duplicate. Readings were normalized to DMSO treated cells and normalized activities were utilized for EC50 calculations using the dose-response log (inhibitor) vs. response-variable slope (four parameters) nonlinear regression feature available in GraphPad Prism 5.0 (or Dotmatics).

[3] = tested on: primary human mesenchymal stem cells (hMSCs); experiment: Induction of chondrogenesis in hMSCs (chondrogenic nodules, Rhodamine B/Nile Red); details: 6 days; for EC50: concentration required to induce 50% levels of chondrogenesis vs TGF-β3, read-out: Conc (nM) of 50% TGF-β3 activity; for Emax: relative to TGF-β3 (10 ng/mL) positive control, read-out: Max. Activity as % TGF-β3 activity
Excerpt: Representative compounds were screened using primary human mesenchymal stem cells (hMSCs) to determine their ability to induce chondrogenesis (process by which cartilage is developed).
Human Mesenchymal Stem Cell Culture: Primary human mesenchymal stem cells (hMSCs) were purchased from Lonza (Walkersville, Md.) and expanded in Mesenchymal Stem Cell Growth Media (Lonza). Cells between passage 3 and 6 were used for the experiments.
Number of nodules in each well was normalized to the average of 3 DMSO treated wells on the same plate using Excel (Microsoft Inc.). The normalized averages (fold change over DMSO) of 3 replicate wells for each compound concentration were calculated. Due to solubility limitations of some of the compounds, curve fitting was incomplete leading to inaccurate EC50 determinations.
Using TGF-β3 as a positive control, the concentration of representative compounds required to induce 50% levels of chondrogenesis is reported. In addition, the maximum activity of each compound and the respective dose that each compound reached maximum chondrogenesis activity is reported.

SMILES | EC50 [1] [nM] | EC50 (SW480 colon cancer cells) [nM] | EC50 [2] [nM] | EC50 (IL-6 (THP-1 cells)) [nM] | EC50 [3] [nM] | Emax [3] [%] | inhibition at 10 µM [1] [%] | inhibition at 10 µM (SW480 colon cancer cells) [%] | inhibition at 10 µM [2] [%] | inhibition at 10 µM (IL-6 (THP-1 cells)) [%]
CCC(=O)Nc1cncc(-c2cc3c(-c4cc5c(-c6cccc(F)c6)nccc5[nH]4)n[nH]c3cn2)c1 [Compound 1, N-(5-(3-(4-(3-Fluorophenyl)-1H-pyrrolo[3,2-c]pyridin-2-yl)-1H-pyrazolo[3,4-c]pyridin-5-yl)pyridin-3-yl)propionamide] | 235 | 931 | 305 | 733 | 30 | 51 | – | – | – | –
CS(=O)(=O)NCc1cc(F)cc(-c2nccc3[nH]c(-c4n[nH]c5cnc(-c6cncc(CNCC7CCCC7)c6)cc45)cc23)c1 [Compound 501, N-(3-(2-(5-(5-(((Cyclopentylmethyl)amino)methyl)pyridin-3-yl)-1H-pyrazolo[3,4-c]pyridin-3-yl)-1H-pyrrolo[3,2-c]pyridin-4-yl)-5-fluorobenzyl)methanesulfonamide] | > 10000 | > 10000 | > 10000 | 3420 | 30 | 52 | 41.7 | 23 | 49.3 | –
CN1CCN(c2nccc3[nH]c(-c4n[nH]c5cnc(-c6cncc(N)c6)cc45)cc23)CC1 [Compound 227, 5-(3-(4-(4-Methylpiperazin-1-yl)-1H-pyrrolo[3,2-c]pyridin-2-yl)-1H-pyrazolo[3,4-c]pyridin-5-yl)pyridin-3-amine] | 5410 | > 10000 | > 10000 | > 10000 | – | 50 | – | 20.5 | 46.2 | 39.5
CN1CCN(c2nccc3[nH]c(-c4n[nH]c5cnc(-c6cncc(NC(=O)C7CCCCC7)c6)cc45)cc23)CC1 [Compound 247, N-(5-(3-(4-(4-Methylpiperazin-1-yl)-1H-pyrrolo[3,2-c]pyridin-2-yl)-1H-pyrazolo[3,4-c]pyridin-5-yl)pyridin-3-yl)cyclohexanecarboxamide] | 2990 | > 10000 | 3420 | 4600 | 10 | 61 | – | 40.3 | – | –
O=C(Nc1cncc(-c2cc3c(-c4cc5c(-c6ccccc6F)nccc5[nH]4)n[nH]c3cn2)c1)C1CCC1 [Compound 77, N-(5-(3-(4-(2-Fluorophenyl)-1H-pyrrolo[3,2-c]pyridin-2-yl)-1H-pyrazolo[3,4-c]pyridin-5-yl)pyridin-3-yl)cyclobutanecarboxamide] | 2820 | 4280 | 1250 | 2800 | – | 44 | – | – | – | –
Fc1ccccc1-c1nccc2[nH]c(-c3n[nH]c4cnc(-c5cncc(CN6CCCC6)c5)cc34)cc12 [Compound 70, 3-(4-(2-Fluorophenyl)-1H-pyrrolo[3,2-c]pyridin-2-yl)-5-(5-(pyrrolidin-1-ylmethyl)pyridin-3-yl)-1H-pyrazolo[3,4-c]pyridine] | 1250 | 3160 | 1980 | 2320 | 10 | 69 | – | – | – | –
CC(C)C(=O)Nc1cncc(-c2cc3c(-c4cc5c(-c6ccncc6)nccc5[nH]4)n[nH]c3cn2)c1 [Compound 121, N-(5-(3-(4-(Pyridin-4-yl)-1H-pyrrolo[3,2-c]pyridin-2-yl)-1H-pyrazolo[3,4-c]pyridin-5-yl)pyridin-3-yl)isobutyramide] | 9820 | > 10000 | > 10000 | > 10000 | – | 32 | – | 19.7 | 6.2 | 0
Oc1cncc(-c2cc3c(-c4cc5c(-c6cccs6)nccc5[nH]4)n[nH]c3cn2)c1 [Compound 709, 5-(3-(4-(Thiophen-2-yl)-1H-pyrrolo[3,2-c]pyridin-2-yl)-1H-pyrazolo[3,4-c]pyridin-5-yl)pyridin-3-ol] | 340 | 6350 | 1010 | 3190 | 10 | 83 | – | – | – | –
Fc1ccc(-c2nccc3[nH]c(-c4n[nH]c5cnc(-c6cncc(CN7CCC(F)(F)C7)c6)cc45)cc23)cc1 [Compound 54, 5-(5-((3,3-Difluoropyrrolidin-1-yl)methyl)pyridin-3-yl)-3-(4-(4-fluorophenyl)-1H-pyrrolo[3,2-c]pyridin-2-yl)-1H-pyrazolo[3,4-c]pyridine] | 28 | 1100 | 291 | 468 | 10 | 61 | – | – | – | –
CCCCC(=O)Nc1cncc(-c2cc3c(-c4cc5c(-c6cc(F)cc(CNS(C)(=O)=O)c6)nccc5[nH]4)n[nH]c3cn2)c1 [Compound 495, N-(5-(3-(4-(3-Fluoro-5-(methylsulfonamidomethyl)phenyl)-1H-pyrrolo[3,2-c]pyridin-2-yl)-1H-pyrazolo[3,4-c]pyridin-5-yl)pyridin-3-yl)pentanamide] | > 10000 | > 10000 | > 10000 | > 10000 | 10 | 111 | 3.3 | 0 | 29.6 | 34.8
Fc1ccccc1-c1nccc2[nH]c(-c3n[nH]c4cnc(-c5cncnc5)cc34)cc12 [Compound 83, 3-(4-(2-Fluorophenyl)-1H-pyrrolo[3,2-c]pyridin-2-yl)-5-(pyrimidin-5-yl)-1H-pyrazolo[3,4-c]pyridine] | 1040 | 1600 | 2140 | > 10000 | – | 47 | – | – | – | 27.3
CN1CCN(c2nccc3[nH]c(-c4n[nH]c5cnc(-c6cncc(NC(=O)c7ccccc7)c6)cc45)cc23)CC1 [Compound 235, N-(5-(3-(4-(4-Methylpiperazin-1-yl)-1H-pyrrolo[3,2-c]pyridin-2-yl)-1H-pyrazolo[3,4-c]pyridin-5-yl)pyridin-3-yl)benzamide] | 2460 | > 10000 | 2800 | 1340 | 10 | 67 | – | 21.5 | – | –
Fc1cccc(-c2nccc3[nH]c(-c4n[nH]c5cnc(-c6cccnc6)cc45)cc23)c1 [Compound 4, 3-(4-(3-Fluorophenyl)-1H-pyrrolo[3,2-c]pyridin-2-yl)-5-(pyridin-3-yl)-1H-pyrazolo[3,4-c]pyridine] | 20 | 867 | 500 | 649 | 300 | 114 | – | – | – | –
